Square brackets hold non-standard residues; d marks the D form. Peptide text beside a SMILES is read from it. * marks the point of attachment. Dansyl = CN(C)c1cccc2c(S(=O)(=O)*)cccc12; Dmt = Cc1cc(O)cc(C)c1C[C@H](N)C(=O)O; 2Abz = Nc1ccccc1C(=O)O; Dap = NC[C@H](N)C(=O)O; Sar = CNCC(=O)O

These results are taken from patent US11845807B2, “Method and carrier complexes for delivering molecules to cells” (priority 2003, dated 2023).

For data set [1], the system named is Huh7 cells. The data set is described as follows: Cell viability by trypan blue uptake. It counts as cell-based. To be noted: 50 μl of 1 mM conjugate in 1 ml medium, 24 hours at 37° C. As for the experimental part: Trypan blue is only taken by cells with increased membrane permeability. Huh7 cells (1×10^6) were washed three times in DMEM, and 1 ml of fresh medium, or media containing 50 μl of 1 mM [Dmt^1]DALDA-SMCC conjugate, [D-Arg-Dmt-Lys-Phe-NH2]-SMCC conjugate, or [Phe^1]DALDA-SMCC conjugate, and incubated at 37° C. for 24 hours at 5% CO2. Cells were then washed three times with DMEM, and 1 ml of 0.4% trypan blue was added to the cells for 2 minutes. Excessive dye was removed by washing cells in cell medium and the cells were examined by light microscopy.

Data set [2] in a line: Peptide translocation across Caco-2 monolayers (Transwell, apical-to-basolateral). It counts as in vitro ADME. To be noted: Caco-2; apical-to-basolateral; read-out: apparent permeability coefficient. The method, then: (§1) Assay for Peptide Translocation across Caco-2 Monolayers. Monolayers of Caco-2 cells were prepared as described previously (Irie et al., J. Pharmacol. Exp. Ther. 2001, 298: 711-717), Caco-2 cells (2×10^5) were seeded on microporous membrane filters (24 mm, […]) inside Transwell cell culture chambers (Corning Glassworks, Corning, N.Y.). Each Transwell chamber was filled with 1.5 ml of medium in the apical compartment and 2.5 ml in the basolateral compartment. The cell monolayers were given fresh medium every 1 to 2 days and were used on day 28 for transport experiments.
(§2) The apparent permeability coefficient was calculated according to the following equation: Papp=X/(t·A·Co), where X/t is the rate of uptake in the receiver compartment, A is the diffusion area (4.72 cm^2), and Co is the initial concentration in the donor compartment.
For orientation: Passage across Caco-2 layers is used to estimate intestinal permeability.

The test system of data set [3] is Caco-2 monolayer. The description is as above. It counts as in vitro ADME. To be noted: 60 min. The method, then:
as §1, §2

Data set [4] deals with Caco-2 cells. To be noted: Terada et al. 1999; confirmed in this study (FIG. 2B); cited from earlier work.
Data set [5] has as its system Caco-2 cells. The data set is described as follows: Assay for peptide uptake in Caco-2 cells. It counts as cell-based. An excerpt: Assay for Peptide Uptake.
Data set [6] deals with Caco-2 cells. Description: Assay for peptide efflux from Caco-2 cells. It counts as cell-based. The method, then:
Assay for Peptide Efflux from CaCo-2 Cells. […] Cells were then washed four times with 1 ml of ice-cold incubation solution to terminate uptake and then incubated with 0.5 ml of MEM for 1 h at either 37 or 4° C. to measure the efflux of peptide from cells to the incubation medium. The amount of radioactivity was determined in cell lysates and in the incubation medium.

Data set [7] relates to SH-SY5Y cells. Description: Confocal laser scanning microscopy of fluorescent peptide uptake, SH-SY5Y cells. The settings on record: 0.1 μM, 30 min at 4° C. It counts as cell-based. The method, then:
Confocal Laser Scanning Microscopy. The uptake of aromatic-cationic peptides into cells was confirmed by confocal laser scanning microscopy (CLSM) using two fluorescent peptides, [Dmt^1,dnsDap^4]DALDA (Dmt-D-Arg-Phe-dnsDap-NH2, where dnsDap is β-dansyl-1-α-β-diamino-propionic acid) and [Dmt^1.atnDap^4]DALDA (Dmt-D-Arg-Phe-atnDap-NH2, where atn is β-anthraniloyl-L-α-β-diaminopropionic acid). Caco-2 cells or SH-SYSY cells were grown as described above and were plated on (35-mm) glass bottom dishes (MatTek, Ashland, Mass.) for 2 days. […] Cells were then washed three times with ice-cold HESS and covered with 200 μl of PBS, and microscopy was performed within 10 min at room temperature using a confocal laser scanning microscope with a C-Apochromat 63×/1.2 W torr objective (Nikon, Tokyo, Japan). Excitation/emission wavelengths were set at 340/520 nm for [Dmt^1,dnsDap^4]DALDA and 320/420 nm for [Dmt^1,atnDap^4]-DALDA, respectively. For optical sectioning in z-direction, 5 to 10 frames with […] were made.

Data set [8] has as its system Caco-2 cells. Description: Confocal laser scanning microscopy of fluorescent peptide uptake, Caco-2 cells. To be noted: 0.1 μM, 15 min at 37° C. It counts as cell-based. The method, then:
Confocal Laser Scanning Microscopy. The uptake of aromatic-cationic peptides into cells was confirmed by confocal laser scanning microscopy (CLSM) using two fluorescent peptides, [Dmt^1,dnsDap^4]DALDA (Dmt-D-Arg-Phe-dnsDap-NH2, where dnsDap is β-dansyl-1-α-β-diamino-propionic acid) and [Dmt^1.atnDap^4]DALDA (Dmt-D-Arg-Phe-atnDap-NH2, where atn is β-anthraniloyl-L-α-β-diaminopropionic acid). Caco-2 cells or SH-SYSY cells were grown as described above and were plated on (35-mm) glass bottom dishes (MatTek, Ashland, Mass.) for 2 days. The medium was then removed, and cells were incubated with 1 ml of HBSS containing 0.1 μM of the fluorescent peptide at either 4° C. or 37° C. for 15 min. Cells were then washed three times with ice-cold HESS and covered with 200 μl of PBS, and microscopy was performed within 10 min at room temperature using a confocal laser scanning microscope with a C-Apochromat 63×/1.2 W torr objective (Nikon, Tokyo, Japan). Excitation/emission wavelengths were set at 340/520 nm for [Dmt^1,dnsDap^4]DALDA and 320/420 nm for [Dmt^1,atnDap^4]-DALDA, respectively. For optical sectioning in z-direction, 5 to 10 frames with […] were made.

Data set [9] has as its system Caco-2 cells. The data set is described as follows: Uptake of peptide-β-Gal conjugates into cells (β-gal staining). It counts as cell-based. The settings on record: 1 h at 37° C. From the text:
Conjugation of protein to [Dmt1]DALDA. was cross-linked to β-galactosidase (recombinant E. coli, Sigma-Aldrich) using a cross-linker SMCC (succinimidyl 4-(N-maleimidomethyl)yclohexane-1-carboxylate)(Pierce). […] Its maleimide end can then be conjugated to a sulfhydryl-containing compound to create a thioether linkage (Bioconjugate Techniques by Greg T. Hermanson, Academic Press, page 234-237). β-Gal contains abundant free sulfhydryl groups in its native state. The uptake of β-Gal provides a convenient read-out with the use of X-gal. […] This should result in “activated peptide.” The “activated peptide” was diluted 1:10 with phosphate buffer. 1 mg of β-Gal was added to 1 ml of the 1:10 “activated peptide” and mixed at 4° C. for either 2 h or overnight.
Assay for [Dmt1]DALDA-protein conjugate uptake into cells. […] Cells were then washed 4 times with PBS. The cells were then stained with β-gal staining set (Roche) for at least 2 h at 37° C. and examined under the microscope.
This should result in “activated peptide.” The “activated peptide” was diluted 1:10 with phosphate buffer. 1 mg of β-Gal was added to 1 ml of the 1:10 “activated peptide” and mixed at 4° C. for either 2 h or overnight.
Cells were then washed 4 times with phosphate buffer. The cells were then stained with β-gal staining set (Roche) for at least 2 h at 37° C. and examined under the microscope.

Turning to `CCOC(=O)OC(=O)OCC` [DEPC, diethylpyrocarbonate, reference compound], in data set [1], the “trypan blue uptake (cell viability)” value is recorded as “significant uptake of trypan blue”.
In the case of `CN(CC(=O)O)C(=O)CN` [Gly-Sar, reference compound] (H-Gly-[Sar]-OH), the Papp A→B in [2] turned out to be 12.6 ×10⁻⁶ cm/s. For the same compound, in data set [3], the “percentage translocated from the apical to the basolateral side” value is reported as 11.9%. In addition, the “pH of optimal uptake (by PEPT1)” value in [4] was 6.0. Moreover, the “effect of DEPC on uptake” value in data set [5] (0.2 mM DEPC) is “significantly inhibited”. The “effect of 4° C. on uptake” value in data set [5] (4° C. versus 37° C.) is “completely abolished”. In addition, the “time course of uptake” value in data set [5] (37° C., 50 μM) was “continued to increase from 5 to 45 min”. The “effect of temperature (4° C.) on efflux” value in data set [6] (4° C. versus 37° C.) is on record as “significantly reduced”. The “peptide effluxed into medium” value in data set [6] (preloaded 1 h, 1 h efflux at 37° C.) is 39%.
For `Cc1cc(O)cc(C)c1C[C@H](N)C(=O)N[C@H](CCCNC(=N)N)C(=O)N[C@@H](Cc1ccccc1)C(=O)N[C@@H](CNC(=O)c1ccccc1N)C(N)=O` [[Dmt^1,atnDap^4]DALDA, Dmt-D-Arg-Phe-atnDap-NH2] (H-[Dmt][dR]F[Dap](2Abz)-NH2; N-terminus assumed), the “internalization at 4° C.” value in data set [7] is given as “energy-independent non-endocytotic uptake mechanism”.
For the compound `Cc1cc(O)cc(C)c1C[C@H](N)C(=O)N[C@H](CCCNC(=N)N)C(=O)N[C@@H](Cc1ccccc1)C(=O)N[C@@H](CNS(=O)(=O)c1cccc2c(N(C)C)cccc12)C(N)=O` [[Dmt^1,dnsDap^4]DALDA, Dmt-D-Arg-Phe-dnsDap-NH2] (H-[Dmt][dR]F[Dap](Dansyl)-NH2; N-terminus assumed), in data set [8], the “intracellular distribution of fluorescence” value is reported as “diffuse throughout the cytoplasm with no apparent vesicular distribution” and the “nuclear localisation of fluorescence” value is given as “completely excluded from the nucleus”. Also, the “intracellular distribution of fluorescence” value in data set [8] (dnsDap^4]DALDA) was “diffuse throughout the cytoplasm”.
For `N=C(N)NCCC[C@@H](NC(=O)[C@@H](N)Cc1ccccc1)C(=O)N[C@@H](Cc1ccccc1)C(=O)N[C@@H](CCCCN)C(N)=O` [[Phe^1]DALDA, Phe-D-Arg-Phe-Lys-NH2] (H-F[dR]FK-NH2; N-terminus assumed), in data set [1], the “trypan blue uptake (cell viability)” value is listed as “No increase in trypan blue uptake”.
Consider “β-Gal with SMCC: β-Gal conjugated with SMCC alone, without peptide (control) [reference compound]”, for which the “uptake of β-Gal into cells (blue cells)” value in data set [9] was “did not enhance uptake”.
For “β-Gal: β-galactosidase (recombinant E. coli, Sigma-Aldrich), protein cargo”, in data set [9], the “uptake of β-Gal into cells (blue cells)” value was “no uptake”.
